We go through 33 molecules from the METLIN SMRT retention time set (Domingo-Almenara et al. 2019).

Molecules are shown by their SMILES.

This data set is described as follows: gradient 5% acetonitrile 3 min, to 50% in 2 min, to 85% in 15 min, held 3 min, 100 µL/min. The note with it: column: Zorbax Extend-C18 2.1 x 50 mm; eluents: water / acetonitrile, 0.1% formic acid. In a few lines:
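The mobile phases were water and acetonitrile, each with 0.1% formic acid, pumped at 100 μL/min through a Zorbax Extend-C18 column (2.1 × 50 mm, 1.8 μm). Pure standards were injected as mixtures of ~100 molecules and detected by a quadrupole time-of-flight mass spectrometer in positive and negative ionization mode. Retention time came from computationally picked adduct peaks, each inspected by hand.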
`COCCn1cc(C(=O)Nc2ccccc2)c2nn(-c3ccccc3)c(=O)c-2c1` displayed an RP-LC retention time of 937 s.
In turn, `Cc1ccc(CNC(=O)c2cc3n(n2)CC(C)(C(=O)NC2CCCCC2)N(C)C3=O)cc1` (stereo not drawn) showed an RP-LC retention time of 605 s.
`COc1cccc(-c2noc(C3CCCN3C(=O)NC(C)C)n2)c1` (stereo not drawn) came in with an RP-LC retention time of 802 s.
Next, `CCC(=O)NCc1nc2c(n1C)CN(C(=O)c1ccccc1Br)CC2`: 505 s; `Cc1ccc(S(=O)(=O)N2C(=O)CCC2C(=O)NC2CCCCCC2)cc1C` (stereo not drawn): 1010 s; `COc1ccc(-c2nc(N(C)Cc3ccco3)c3ccccc3n2)cc1`: 765 s.
Take `Cn1ncn2cc(S(=O)(=O)N3CCN(c4ccccn4)CC3)cc2c1=O`: the RP-LC retention time was found to be 578 s.
Under `COc1cc(NC(=O)N2CCC(n3c(C(F)(F)F)nc4cccnc43)CC2)cc(OC)c1` stands 895 s; under `CC(C)N1CCN(Cc2ccc(C(=O)N3CCN(C4CCCCC4)CC3)cc2)C(=O)C1=O`, 839 s; under `CCc1ccc(-c2cn3ccn(-c4cccc(F)c4)c(=O)c3n2)cc1`, 895 s.
`COc1ccc2[nH]c(=O)c(CCC(=O)NCCN3CCc4ccccc4C3)cc2c1` yielded an RP-LC retention time of 623 s.
In turn, `O=C(Nc1cccc(Cl)c1)C1CCCN(S(=O)(=O)c2c[nH]c(C(=O)N3CCCCCC3)c2)C1` (stereo not drawn) showed an RP-LC retention time of 964 s.
Molecule `COc1ccccc1-c1nnc(NC(=O)c2c[nH]c3ccccc23)o1` gave an RP-LC retention time of 678 s.
In turn, `COc1ccc(OC)c(S(=O)(=O)N2CCCC(C(=O)Nc3cccc(C)c3)C2)c1` (stereo not drawn) had an RP-LC retention time of 952 s.
In turn, `CNC(=O)C1CCN(C2=NS(=O)(=O)C(c3ccc(C(C)C)cc3)=C2C)CC1` showed an RP-LC retention time of 777 s.
In the case of `N#CC1(C(=O)NCc2nc(-c3ccccc3)no2)CC1`, the RP-LC retention time was 729 s.
With `COc1cc(NC(=O)CN2C(=O)CCn3nc(-c4cn(C)c5ccccc45)cc32)cc(OC)c1`, the RP-LC retention time was 822 s.
As to `Cc1ncn(CC(=O)Nc2ccc(F)cc2)c(=O)c1C`, the RP-LC retention time turned out to be 638 s.
Under `O=C(Cc1cccs1)NCc1nnnn1-c1ccc(Cl)cc1` stands 747 s; under `O=C(NCc1ccco1)c1c(O)c2cccnc2n(-c2cccc(F)c2)c1=O`, 1070 s; under `Cc1nc(OCC(=O)NC2CCCCC2)c2c(-c3cccc(F)c3)noc2n1`, 990 s.
`CCn1c(C(=O)N2CCCC(C(=O)NCCc3ccc(S(N)(=O)=O)cc3)C2)cc2sccc21` (stereo not drawn): the RP-LC retention time turned out to be 733 s.
`CCCNC(=O)C1CCN(c2ccc(SCC(=O)Nc3ccc4c(c3)CCC4)nn2)CC1` displayed an RP-LC retention time of 707 s.
Under `CC(C)C(=O)Nc1nnc2n1CCS2` stands 519 s; under `CCN(C(=O)C1CCCN(c2ncnc3c2nc2n3CCCCC2)C1)c1ccccc1C` (stereo not drawn), 890 s.
Under `CCOC(=O)Cc1ccc(NC(=O)N2CCc3cn(CC)c4cccc(c34)C2)cc1` stands 1020 s; under `Cc1cccc(Cn2nc3n(CCC(=O)NC(C)C)c(=O)c4ccccc4n3c2=O)c1`, 851 s.
Under `O=C(Cn1cc2c(n1)CCCCC2)Nc1ccc(Br)cc1F` stands 1050 s; under `COc1ccc(C)cc1NC(=O)N1CCN(c2ccc(-c3ccc4c(c3)OCO4)nn2)CC1`, 659 s; under `O=C(Cn1cccn1)N1CCCC(COCc2ccccc2)C1` (stereo not drawn), 709 s.
`CCCN1C(=O)COc2ccc(-c3noc(-c4cc(OC)c(OC)c(OC)c4)n3)cc21`: the RP-LC retention time came out at 1140 s.
On to `COc1ccc(-c2csc(NC(=O)c3ccc(Br)s3)n2)cc1OC`, for which the RP-LC retention time turned out to be 990 s.
Take `COc1ccc(OC)c(-c2ccc(=O)n(Cc3ccccn3)n2)c1`: the RP-LC retention time turned out to be 622 s.
